Data from PMC9015279 (Chemmedchem, 2021).
Read-outs that look alike come from different tables or passages of the source.

How the values were obtained:
[1] = target: T1, SARS-CoV-2 main protease (M^pro) (Severe acute respiratory syndrome coronavirus 2, UniProt P0DTD1); assay: protein-observed mass spectrometry (POMS) under denaturing conditions, number of covalent reactions; type: binding; settings: 40 μM compound, 2 μM M^pro, 20 mM HEPES, pH 7.5, 50 mM NaCl, covalent reactions with M^pro
[2] = target: T1, SARS-CoV-2 main protease (M^pro); assay: biochemical
[3] = target: T1, SARS-CoV-2 main protease (M^pro); assay: biochemical; settings: for IC50: […] substrate, pH 7.3, 15 min pre-incubation; for FRET pIC50 / apparent max. no. of reactions: ratio of FRET pIC50 to number of reactions observed by MS
[4] = 50 nM M^pro, read-out: FRET IC50
[5] = 50 nM M^pro, read-out: FRET pIC50 (converted)
[6] = M^pro (0.3 µM) incubated 15 min with compound, TSAVLQ/SGFRK-NH2 peptide (4 µM), 10 min reaction, read-out: SPE-MS IC50
[7] = M^pro (0.3 µM) incubated 15 min with compound, TSAVLQ/SGFRK-NH2 peptide (4 µM), 10 min reaction, read-out: SPE-MS pIC50 (converted)

SMILES	Apparent max. no. of reactions [1]	most dominant no. of reactions [1]	FRET pIC50 / apparent max. no. of reactions [3]	IC50 [3, 4]	IC50 [3, 5]	IC50 [2, 6]	IC50 [2, 7]	further results
O=c1c2ccccc2[se]n1-c1ccccc1 [Compound 1, ebselen, reference compound]	12/12	12/12	–	–	–	–	–	Apparent max. no. of reactions ([1]; listed as ebselen): up to 12
O=c1[nH]sc2ccccc12 [Compound 2]	6	2	1.0	–	–	–	–	IC50 [2]: 990 ± 150 nM; IC50 ([3]; FRET IC50, 50 nM M^pro): 1510 ± 90 nM
O=c1c2ccccc2sn1-c1ccccc1 [Compound 3a]	11/11	11/11	0.6	~130 nM	129 nM	–	–	Apparent max. no. of reactions ([1]; listed as 3 a): 11; most dominant no. of reactions ([1]; listed as 3 a): 11; IC50 ([2]; read-out: SPE-MS pIC50 (converted)): 339 ± 69.8 nM
Cc1cccc2c(=O)n(-c3ccccc3)sc12 [Compound 3b]	1	0	–	–	–	> 100000 nM	–	–
O=c1c2cccc(Br)c2sn1-c1ccccc1 [Compound 3c]	completely prevents irreversible covalent reaction	–	–	–	–	10900 ± 820 nM	–	–
O=c1c2cccc(-c3ccccc3)c2sn1-c1ccccc1 [Compound 3d]	completely prevents irreversible covalent reaction	–	–	–	–	> 100000 nM	–	–
O=c1c2cc(Br)ccc2sn1-c1ccccc1 [Compound 3e]	–	1	3.8	–	30.9 nM	–	339 ± 19.9 nM	–
O=c1c2cnccc2sn1-c1ccccc1 [Compound 3f]	9	5	0.7	–	–	–	427 nM	–
CC(C)CCn1sc2ccccc2c1=O [Compound 4a]	6	4	1.1	~320 nM	316 nM	–	417 nM	–
Cc1cccc2c(=O)n(CCC(C)C)sc12 [Compound 4b]	0	–	–	–	–	> 100000 nM	–	–
CC(C)CCn1sc2c(Br)cccc2c1=O [Compound 4c]	completely prevents irreversible covalent reaction	–	–	–	93300 nM	> 100000 nM	–	–
CC(C)CCn1sc2ccc(Br)cc2c1=O [Compound 4d]	2	0	3.3	~210 nM	209 nM	430 ± 10 nM	339 nM	most dominant no. of reactions ([1]; listed as 4 d): no reaction
O=c1c2ccccc2sn1Cc1ccccc1 [Compound 5]	6	4	1.1	–	178 nM	430 ± 30 nM	437 nM	–
O=c1c2ccccc2sn1CC1CCCCC1 [Compound 6]	6	4	1.0	–	933 nM	530 ± 50 nM	–	–
CCCCCn1sc2ccccc2c1=O [Compound 7]	5	4	1.3	~410 nM	407 nM	470 nM	–	–
O=c1c2ccccc2sn1-c1ccccn1 [Compound 8]	6	2	1.1	220 ± 100 nM	214 nM	790 ± 90 nM	–	–
O=C1C[C@H](Cn2sc3ccccc3c2=O)CN1 [Compound 9]	–	–	2.1	510 ± 20 nM	–	2550 ± 570 nM	2510 nM	–
COCCn1sc2ccccc2c1=O [Compound 10]	5	2	1.2	–	–	–	–	IC50 [2]: 780 ± 180 nM; IC50 ([3]; FRET IC50, 50 nM M^pro): 950 ± 40 nM; IC50 ([3]; FRET pIC50, 50 nM M^pro): 776 nM
COC(=O)CCn1sc2ccccc2c1=O [Compound 11]	6	2	1.1	–	245 nM	–	389 ± 49.9 nM	–
COC(=O)Cn1c(=O)c2ccccc2[s+]1[O-] (stereo not drawn) [Compound 12]	–	–	–	2830 ± 340 nM	–	20100 ± 1120 nM	–	–
